According to patent publication US20060173015A1, “Cyclohexyldiamines as selective alpha 1a/1d adrenoreceptor antagonists for the treatment of benign prostatic hypertrophy and lower urinary tract symptoms” (priority 2004, published 2006):

Tests used:
α1d-AR = target: T1, α1d-AR (Homo sapiens, UniProt P25100); assay: α1-Adrenergic receptor radio-ligand (125I-HEAT) binding assay, α1d subtype; settings: COS-7 cell membranes, 125I-HEAT; read-out: Receptor Binding, Ki α1d-AR
T1 construct: expressed in transfected cells; host or cells: COS-7
T1 sequence (P25100 1-572): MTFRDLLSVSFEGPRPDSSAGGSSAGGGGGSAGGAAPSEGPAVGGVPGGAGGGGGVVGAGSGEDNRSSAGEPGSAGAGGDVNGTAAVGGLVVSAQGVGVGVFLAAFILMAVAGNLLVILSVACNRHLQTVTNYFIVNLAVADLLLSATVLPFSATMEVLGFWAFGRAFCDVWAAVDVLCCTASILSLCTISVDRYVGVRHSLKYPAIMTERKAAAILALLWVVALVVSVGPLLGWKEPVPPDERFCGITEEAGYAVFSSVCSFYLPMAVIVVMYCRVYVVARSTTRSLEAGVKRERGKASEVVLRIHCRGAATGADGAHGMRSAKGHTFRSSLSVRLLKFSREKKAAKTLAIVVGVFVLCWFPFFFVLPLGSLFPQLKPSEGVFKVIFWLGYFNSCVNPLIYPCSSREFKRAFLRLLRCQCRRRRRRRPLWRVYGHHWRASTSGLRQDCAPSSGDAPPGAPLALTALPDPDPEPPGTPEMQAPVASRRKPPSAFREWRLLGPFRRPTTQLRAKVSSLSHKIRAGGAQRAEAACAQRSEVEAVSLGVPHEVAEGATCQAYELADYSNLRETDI

IUP = assay: Phenylephrine-induced IUP in a conscious canine model; type: in vivo; settings: conscious dog
Experimental: In-Vivo Evaluation of α1-Adrenergic Antagonists on IUP and MAP in a Conscious Canine Model
An anesthetized dog was fitted with a balloon catheter for the measurement of changes in prostatic IUP and with a number of implanted pressure transducers and telemetry transmitters for measuring MAP.
The pressor effects of challenge doses […] of the α-adrenergic agonist phenylephrine upon IUP and MAP were measured before and at various time points after a single dose (p.o.) of an α-adrenergic antagonist test compound (Compound 69) of the present invention.
Each treatment group was dosed with a test compound (0.1, 0.3, 1.0 and 3.0 mg/kg) in four separate experiments. The first challenge dose of phenylephrine for each treatment group was administered at the time of the test compound dose (time 0). The value for the first challenge dose represents an average of up to three challenge doses administered prior to time 0.
Subsequent challenge doses for all treatment groups were administered at 30 min. then one hour and two hours after time 0.
The final challenge doses for the 0.1 and 0.3 mg/kg groups were administered at four and six hours after time 0. The final challenge doses for the 1.0 mg/kg group were administered at four, six and eight hours after time 0. The final challenge doses for the 3.0 mg/kg group were administered at four, six, 12 and 24 hours after time 0.
A 7F Fogarty balloon catheter lubricated with a water-soluble jelly was inserted into the urethra and advanced into the bladder (approximately 40 cm). The balloon was inflated with approximately water (0.2 mL). The catheter was slowly withdrawn from the bladder to just past the point of first resistance from the bladder neck in order to position the balloon within the prostatic urethra. The balloon was then inflated to approximately 0.7 mL. The balloon port of the catheter was connected to a Gould Statham pressure transducer, the output of which was connected to the pressure input of a Physio Control VSM1 Patient Monitor.
A test compound was administered via the cephalic or saphenous vein using an appropriately sized IV catheter (Surflo, Terumo Medical Corporation or equivalent).
Prior to test compound administration, IUP and MAP responses to an individualized dose of phenylephrine (either 10 or 15 μg/kg IV, depending on the individual animal's response) was repeated 2 to 3 times to establish a baseline response. After test compound administration, the individualized phenylephrine dose was administered to each animal at predetermined intervals over a period of up to 24 hours.
Data for phenylephrine-induced changes in IUP and MAP were tabulated for each treatment group and each experiment. A mean value and standard deviation for the phenylephrine-induced changes to the effect of a test compound on IUP and MAP at each dose was calculated and tabulated for each treatment group over the length of the study.

For `COc1ccc(S(=O)(=O)N[C@H]2CC[C@@H](N3CCN(c4ccccc4OCC(F)(F)F)CC3)CC2)cc1OC` [Cpd 69, 3,4-Dimethoxy-N-cis-(4-{4-[2-(2,2,2-trifluoro-ethoxy)-phenyl]-piperazin-1-yl}-cyclohexyl)-benzenesulfonamide], the Ki (α1d-AR) was 0.92 nM, the “IUP, normalized % of baseline (mean)” value (IUP; 0.1 mg/kg p.o., 0 hrs (baseline)) was 100% and the “IUP, normalized % of baseline (mean)” value (IUP; 0.1 mg/kg p.o., 0.5 hrs after dose) was 87.3%. The “IUP, normalized % of baseline (mean)” value (IUP; 0.1 mg/kg p.o., 1 hrs after dose) was 78.3%, the “IUP, normalized % of baseline (mean)” value (IUP; 0.1 mg/kg p.o., 2 hrs after dose) was 78.8% and the “IUP, normalized % of baseline (mean)” value (IUP; 0.1 mg/kg p.o., 4 hrs after dose) was 82.5%. For the same molecule, the “IUP, normalized % of baseline (mean)” value (IUP; 0.1 mg/kg p.o., 6 hrs after dose) was 86.5%, the “IUP, normalized % of baseline (mean)” value (IUP; 0.3 mg/kg p.o., 0 hrs (baseline)) was 100% and the “IUP, normalized % of baseline (mean)” value (IUP; 0.3 mg/kg p.o., 0.5 hrs after dose) was 63.0%. The “IUP, normalized % of baseline (mean)” value (IUP; 0.3 mg/kg p.o., 1 hrs after dose) was 47.0%, the “IUP, normalized % of baseline (mean)” value (IUP; 0.3 mg/kg p.o., 2 hrs after dose) was 51.1% and the “IUP, normalized % of baseline (mean)” value (IUP; 0.3 mg/kg p.o., 4 hrs after dose) was 70.0%. For the same molecule, the “IUP, normalized % of baseline (mean)” value (IUP; 0.3 mg/kg p.o., 6 hrs after dose) was 84.4%, the “IUP, normalized % of baseline (mean)” value (IUP; 1.0 mg/kg p.o., 0 hrs (baseline)) was 100% and the “IUP, normalized % of baseline (mean)” value (IUP; 1.0 mg/kg p.o., 0.5 hrs after dose) was 32.9%. For the same molecule, the “IUP, normalized % of baseline (mean)” value (IUP; 1.0 mg/kg p.o., 1 hrs after dose) was 20.6%, the “IUP, normalized % of baseline (mean)” value (IUP; 1.0 mg/kg p.o., 2 hrs after dose) was 28.6% and the “IUP, normalized % of baseline (mean)” value (IUP; 1.0 mg/kg p.o., 4 hrs after dose) was 49.0%. For the same molecule, the “IUP, normalized % of baseline (mean)” value (IUP; 1.0 mg/kg p.o., 6 hrs after dose) was 66.3%, the “IUP, normalized % of baseline (mean)” value (IUP; 1.0 mg/kg p.o., 8 hrs after dose) was 70.4% and the “IUP, normalized % of baseline (mean)” value (IUP; 3.0 mg/kg p.o., 0 hrs (baseline)) was 100%. For the same molecule, the “IUP, normalized % of baseline (mean)” value (IUP; 3.0 mg/kg p.o., 0.5 hrs after dose) was 5.2%, the “IUP, normalized % of baseline (mean)” value (IUP; 3.0 mg/kg p.o., 1 hrs after dose) was 2.2% and the “IUP, normalized % of baseline (mean)” value (IUP; 3.0 mg/kg p.o., 2 hrs after dose) was 7.0%. The “IUP, normalized % of baseline (mean)” value (IUP; 3.0 mg/kg p.o., 4 hrs after dose) was 17.1%, the “IUP, normalized % of baseline (mean)” value (IUP; 3.0 mg/kg p.o., 6 hrs after dose) was 31.6% and the “IUP, normalized % of baseline (mean)” value (IUP; 3.0 mg/kg p.o., 12 hrs after dose) was 67.7%. For the same molecule, the “IUP, normalized % of baseline (mean)” value (IUP; 3.0 mg/kg p.o., 24 hrs after dose) was 93.8%.
